Experimental data taken from US20250073234A1, “COMBINATION THERAPIES INCLUDING PARP1 INHIBITORS” (Cornell University, priority 2022, published 2025).
Read-outs that look alike come from different tables or passages of the source.

How the values were obtained:
PARP-1 = experiment: Poly(ADP-ribosyl)ation in WPMY-1 cells (immunoblot, immunoprecipitation); type: cell-based, human; settings: added to lactate-treated cells, 48 h
Method: Cells for protein analysis were lysed in RIPA buffer (20 mM Tris-HCl, […], 2 mM EDTA, 1% Triton-X, 10% glycerol, 0.1% SDS, and 0.5% sodium deoxycholate) with phosphatase and protease inhibitors. For immunoprecipitations, cells were lysed in IP lysis buffer (100 mM NaCl, 25 mM Tris, 1% Triton-X, 10% glycerol, with phosphatase and protease inhibitors) and immunoprecipitated with 25 μl of 50% slurry of protein […] beads (Bioworld). Immunoprecipitates were washed three times with lysis buffer, once with high salt (500 mM NaCl), and once more with lysis buffer. Protein concentration in lysates was determined by using Protein Assay Kit (Bio-Rad). Cell extracts and immunoprecipitated proteins were denatured, subjected to SDS-PAGE, transferred to PVDF membranes (GE Healthcare). After blocking with 5% nonfat dry milk in Tris-buffered saline and 0.1% Tween (TBS-T), the membranes were incubated with the specific antibodies (as listed in Key Resources Table) overnight at 4° C. After 2 hours incubation with the appropriate horseradish peroxidase-conjugated antibodies, the immune complexes were detected by chemiluminescence (Thermo Scientific) or Near-infrared fluorescence (LI-COR).

[1] = system: prostate cancer bone metastasis; experiment: Paired biopsies of bone metastasis from a mCRPC patient, IHC for HA; type: in vivo, human
PC3 + WPMY-1 tumors = experiment: Subcutaneous xenograft co-implantation of PC3 and WPMY-1 cells in NSG mice; type: in vivo, mouse; settings: Olaparib 40 mg/kg i.p. twice a week, 2 weeks
Method: For mouse xenografts using PC3 PCa cells and sgC or sgAP-1 WPMY-1 stromal cells. 7 weeks old NSG mice were surgical castrated and let androgen levels drop for 10 days. Cells were trypsinized washed two times in PBS and resuspend in DMEN. 1×10^6 PC3 and 1×10^6 sgC or sgAP1-A WPMY-1 for each mouse were resuspended in 100 μl DMEM: Matrigel (1:1) and injected subcutaneously into both flanks of immunocompromised NSG mice (PC3+sgC WPMY-1 n=4; PC3+sgAP-1 WPMY-1 n=4). Tumors were allowed to grow for 1 month. Mice were euthanized and tumors were collected and analyzed histologically. For Olaparib treatment in mouse xenografts. PC3 PCa cells and WPMY-1 stromal cells were trypsinized washed two times in PBS and resuspend in DMEN. 1×10^6 PC3 and 1×10^6 WPMY-1 for each mouse were resuspended in 100 μl DMEM: Matrigel (1:1) and injected subcutaneously into both flanks of immunocompromised NSG mice. Tumors were allowed to grow for 14 days, and mouse were randomly divided to receive vehicle, n=10, Olaparib (40 mg/kg, 2 days each week, i.p.), n=10 or Olaparib (40 mg/kg, 2 days each week, i.p.)+_PEGPH20 (0.0375 mg/Kg, 2 days each week, retroorbital injection) n=10. Tumors were measured twice a week. Mice were euthanized 14 days after the initiation of the treatment and tumors were collected and analyzed histologically. For Olaparib treatment in mice, 13 weeks-old male TRAMP^+, n=18, were randomly distributed to receive vehicle, n=9, or Olaparib (40 mg/kg/, 5 days each week, i.p.), n=9. Mice were euthanized 1 month after the initiation of the treatment. Prostate and other organs were collected and analyzed histologically.
Tissues from indicated mice were isolated, fixed in zinc buffered formalin overnight at 4° C., dehydrated, and embedded in paraffin. Sections (5 μm) were stained with hematoxylin and eosin (H&E). For immunohistochemistry, sections were deparaffinized, rehydrated, and then treated for antigen retrieval. […] Stained sections were analyzed with a Zeiss light microscope supplemented with Zen 3.3 Bule edition software.

[2] = system: tumor-invaded lymph nodes and bones; experiment: Castrated TRAMP+/FVB mice, IHC of metastatic lymph nodes and bone; type: in vivo, mouse; settings: for αSMA expression and HA deposition in metastatic lymph nodes: 3 weeks
Method: Tissues from indicated mice were isolated, fixed in zinc buffered formalin overnight at 4° C., dehydrated, and embedded in paraffin. Sections (5 μm) were stained with hematoxylin and eosin (H&E). For immunohistochemistry, sections were deparaffinized, rehydrated, and then treated for antigen retrieval. After blocking in Protein Block Serum-Free solutions (DAKO), tissues were incubated with primary antibody overnight at 4° C. followed by incubation with biotinylated secondary antibody. Endogenous peroxidase was quenched in 3% H2O2 in water for 10 minutes at room temperature. Antibodies were visualized with avidin-biotin complex (Vectastain Elite; Vector Laboratories) using diaminobenzidine as the chromogen. Stained sections were analyzed with a Zeiss light microscope supplemented with Zen 3.3 Bule edition software.
For Olaparib treatment in mice, 13 weeks-old male TRAMP^+/FVB were surgical castrated, after 10 days n=16, were randomly distributed to receive vehicle, n=8, or Olaparib n=8 (5 mg/kg/, 5 days each, i.p.). Mice were euthanized 3 weeks after the initiation of the treatment. Prostate and other organs were collected and analyzed histologically.

WPMY-1 fibroblasts = experiment: GSEA of RNAseq data from WPMY-1 fibroblasts; type: cell-based, human; settings: for GSEA inflammatory signaling pathways (TNFα, IL-6, JAK-STAT): Olaparib 20 μM vs DMSO
Method: Total RNA was extracted using Quick-RNA MiniPrep kit (Zymo Research). Libraries were prepared from 200 ng of total RNA using the QuantSeq 3′ mRNA-Seq Library Prep Kit FWD for Illumina from Lexogen, and optional UMIs (Vienna, Austria). Barcoded libraries were pooled, and single end sequenced (1×75) on the Illumina NextSeq 500 using the High output V2.5 kit (Illumina Inc., San Diego CA).
Peaks were annotated with ChipSeeker R package. […].

PC3 cells = experiment: Click-iT EdU proliferation of PC3 cells treated with CM from WPMY-1 cells; type: cell-based, human; settings: CM from Olaparib-treated WPMY-1, 24 h
Method: WPMY-1 cells were cultured in DMEN containing 10% FBS (basal conditions) or 10% charcoal stripped FBS (ADT conditions), then the cells were treated with vehicle (DMSO), Olaparib 10 μM, Olaparib 10 μM+PEGPH20 2.5 μg/ml for 96 hours, refreshing media and stimuli at 48 hours, conditioned media (CM) was generated by collecting supernatant on day 4. PC3 cells were seeded in a black-walled well (Thermo Fisher) and serum starved overnight. CM from WPMY-1 cells was added to PC3 for 24 h. PC3 were exposed to EdU incorporation for the last 2 hours. Proliferating cells were detected using Click-iT EdU Alexa fluor 488 (Thermo Fisher) following the manufacturer's instructions. Pictures were taken using EVOS M5000 Imaging System and EdU positive were measured using Fiji (Schindelin et al., 2012).

Compound | poly(ADP-ribosyl)ation of c-JUN and c-FOS in lactate-treated cells (PARP-1) | HA deposition in bone metastasis, pre- vs post-treatment [1] | HA deposition in bone metastasis, pre- vs post-treatment ([1]; listed as Ola) | desmoplastic response (collagen, HA, aSMA, p62) (PC3 + WPMY-1 tumors) | tumor growth (weight, volume) (PC3 + WPMY-1 tumors) | HA in bone marrow stromal cells and growth plate [2] | αSMA expression and HA deposition in metastatic lymph nodes [2] | αSMA expression and HA deposition in metastatic lymph nodes ([2]; listed as Ola) | HA in bone marrow stromal cells and growth plate ([2]; listed as Ola) | GSEA inflammatory signaling pathways (TNFα, IL-6, JAK-STAT) (WPMY-1 fibroblasts) | GSEA inflammatory signaling pathways (TNFα, IL-6, JAK-STAT) (WPMY-1 fibroblasts; listed as Ola) | GSEA signatures of extracellular matrix remodeling / CAF activation (WPMY-1 fibroblasts; basal or ADT conditions) | PC3 proliferation (EdU positive cells) (PC3 cells)
NC(=O)c1ccc[n+]([C@@H]2O[C@H](COP(=O)([O-])OP(=O)(O)OC[C@H]3O[C@@H](n4cnc5c(N)ncnc54)[C@H](O)[C@@H]3O)[C@@H](O)[C@H]2O)c1 [NAD^+] | rescued the poly(ADP-ribosyl) ation of both transcription factors | – | – | – | – | – | – | – | – | – | – | – | –
O=C(c1cc(Cc2n[nH]c(=O)c3ccccc23)ccc1F)N1CCN(C(=O)C2CC2)CC1 [Olaparib] | – | increased HA deposition | robust increase in HA deposition | strong desmoplastic response | efficiently reduced tumor growth | increased HA deposition in the growth plate and stromal areas | increased stromal content upon Olaparib treatment | increased «SMA expression and higher hyaluronan (HA) deposition | higher levels of HA | increased inflammatory related signatures | significant enrichment was found in inflammatory signaling pathways | enrichment of signatures corresponding to extracellular matrix remodeling | increased PC3 proliferation
